Assay results taken from patent publication US7064243B2, “Screens and assays for agents useful in controlling parasitic nematodes” (Cambria Biosciences LLC, priority 2001, dated 2006).
“Also recorded” adds a separate entry of the source. Where two headings read alike, the source gives them in different places.

Legend:
[1] = tested on: secretion of the VAP-1-Myc fusion protein; assay: Secretion assay: immunoblot (anti-Myc) of VAP-1-Myc in conditioned axenic media of worms bearing the vap-1::myc transgene; assay type: in vivo, C. elegans; conditions: various concentrations, 16 hours, 24 well plates, dose-dependent fashion (FIG. 8)
Procedure: Worms (either animals bearing the vap-1::myc transgene or unc-119 (e2498) mutants rescued with plasmid pPD#MM016B as a negative control) were cultured in S basal medium (recipe below) containing HB101 bacteria as a food source for 4–5 days as described below. The worms were separated from the media by centrifugation and washed several times in S basal media. Worms were then resuspended in 50 ml of axenic media (recipe below) and cultured overnight (˜20 h). A vessel containing only axenic media without worms was maintained under identical conditions as a control. The worm density in both the vap-1::myc and unc-119 cultures was approximately 50,000 per ml. It was estimated that 50–70% of the worms carry the transgene.
After overnight incubation in axenic media, the worms and media were separated by centrifugation (see below for details) and the media were concentrated using Centriprep 30 concentrators (see below for details). […]
To determine the effect of 4,7 phenanthroline on secretion of the VAP-1-Myc fusion protein, worms (either transformation control or bearing the vap-1::myc transgene) were cultured in 24 well plates (in a manner similar to the 96 well scaledown protocol described below) in axenic media in the presence of various concencentrations of 4,7 phenanthroline for 16 hours. […] VAP-1-Myc fusion protein was detected with anti-Myc antibody as described above.

ASP-1 release = conditions: hookworm larvae, cited from earlier work
A. caninum L3 larvae = conditions: in vivo; cited from earlier work

SMILES: c1cnc2ccc3ncccc3c2c1 [4,7-phenanthroline]
- secretion of the VAP-1-Myc fusion protein [1]: inhibited
- release of ASP-1 (ASP-1 release): known inhibitor; also recorded: blocked
- release of ASP-1 (ASP-1 release; listed as 4,7 phenanthroline): known inhibitor
- resumption of larval hookworm development (A. caninum L3 larvae): blocked
